Assay in all cases: Minimum Inhibitory Concentration, serial dilution on DST agar
Type in all cases: cell-based

One test relates to Staph. aureus Russell. Particulars: lactamase-producing benzylpenicillin-resistant strain, DST agar + 10% horse blood, 0.001 ml of 10^-2 dilution (Gram-positive), 37° C., 18 h; for MIC: Staphylococcus aureus. How it is done: (§1) ^a Determined by serial dilution on DST agar containing 10% horse
(§2) blood using an inoculum of 0.001 ml of a 10^-2 dilution for
(§3) Grampositive bacteria or a 10^-4 dilution for Gramnegative organisms.
(§4) MIC values were read after incubation at 37° C. for 18 h.
^b Lactamase-producing benzylpenicillinresistant strain.

Another test relates to Proteus mirabilis. Particulars: DST agar + 10% horse blood, 0.001 ml of 10^-4 dilution (Gram-negative), 37° C., 18 h. Here is the method: as §1, §2, §3, §4
The subject of another test is Strep. faecalis. The settings on record: DST agar + 10% horse blood, 0.001 ml of 10^-2 dilution (Gram-positive), 37° C., 18 h. Here is the method: as §1, §2, §3, §4
Another test deals with B. subtilis. Particulars: DST agar + 10% horse blood, 0.001 ml of 10^-2 dilution (Gram-positive), 37° C., 18 h; for MIC: Bacillus subtilis. How it is done: as §1, §2, §3, §4
In another test the test system is Klebsiella aerogenes. Particulars: DST agar + 10% horse blood, 0.001 ml of 10^-4 dilution (Gram-negative), 37° C., 18 h. Here is the method:
as §1, §2, §3, §4

In a further test the test system is E. coli. The settings on record: DST agar + 10% horse blood, 0.001 ml of 10^-4 dilution (Gram-negative), 37° C., 18 h; for MIC: Escherichia coli. Here is the method: as §1, §2, §3, §4
Another test relates to Staph. aureus Oxford. Particulars: DST agar + 10% horse blood, 0.001 ml of 10^-2 dilution (Gram-positive), 37° C., 18 h; for MIC: Staphylococcus aureus. Here is the method: as §1, §2, §3, §4
In another test the test system is S. typhimurium. Particulars: DST agar + 10% horse blood, 0.001 ml of 10^-4 dilution (Gram-negative), 37° C., 18 h; for MIC: Salmonella enterica. How it is done: as §1, §2, §3, §4
Another test has as its system Strep. pneumoniae. Particulars: DST agar + 10% horse blood, 0.001 ml of 10^-2 dilution (Gram-positive), 37° C., 18 h. Here is the method:
as §1, §2, §3, §4

Molecules are shown by their SMILES. Where only a bound is given, the exact number is not on record here.

What is called MIC is the lowest concentration found to suppress growth.

On to `COC(=O)C1=C[C@@H]2[C@H](NC(=O)[C@H](N)c3ccccc3)C(=O)N2[C@H]1C(=O)O.Cc1ccc(N)cc1` (racemic) [(48), (2RS, 5RS, 6SR) 1-Aza-3-methoxycarbonyl-6-D-α-phenylglycylamino-bicyclo-[3.2.0]-hept-3-en-7-one-2-carboxylic acid, p-toluidine salt], for which the “Minimum Inhibitory Concentration” value in the test on Staph. aureus Russell is > 50 µg/mL; in the test on Proteus mirabilis it was 25 µg/mL; with Strep. faecalis it was 12.5 µg/mL; with B. subtilis it was 1.2 µg/mL; in the test with Klebsiella aerogenes it was 50 µg/mL; in the test on E. coli it was 50 µg/mL. Besides, the “Minimum Inhibitory Concentration” value with Staph. aureus Oxford is 12.5 µg/mL; with S. typhimurium, 12.5 µg/mL; with Strep. pneumoniae, 0.5 µg/mL.
As to `COC(=O)C1=C[C@@H]2[C@H](NC(=O)COc3ccccc3)C(=O)N2[C@H]1C(=O)O` (relative stereo) [(39), (2RS, 5RS, 6SR) Sodium 1-aza-3-methoxycarbonyl-6-phenoxyacetamido-bicyclo-[3.2.0]-hept-3-en-7-one-2-carboxylate], the minimum inhibitory concentration (MIC) with Staph. aureus Russell is > 100 µg/mL; in the test on Proteus mirabilis it was > 100 µg/mL; in the test on B. subtilis, 1 µg/mL; in the test with Klebsiella aerogenes, > 100 µg/mL; with E. coli, > 100 µg/mL; with Staph. aureus Oxford, 2.5 µg/mL. In addition, the MIC in the test with S. typhimurium is > 100 µg/mL.
Take `N#CC1=C[C@@H]2[C@H](NC(=O)COc3ccccc3)C(=O)N2[C@H]1C(=O)O` (relative stereo) [(57)]: the MIC in the test with Staph. aureus Russell was 50 µg/mL; in the test with Proteus mirabilis, > 50 µg/mL; in the test on Strep. faecalis (Enterococcus faecalis), > 50 µg/mL; with B. subtilis, 2.5 µg/mL; with Klebsiella aerogenes, > 50 µg/mL; with E. coli it was > 50 µg/mL. Besides, the MIC in the test on Staph. aureus Oxford is 5 µg/mL; in the test with S. typhimurium it was > 50 µg/mL; in the test with Strep. pneumoniae (Streptococcus pneumoniae), 1.2 µg/mL.
For the molecule `COC(=O)C1=C[C@@H]2[C@H](NC(=O)C(C(=O)OCc3ccccc3)c3ccccc3)C(=O)N2[C@H]1C(=O)O.Cc1ccc(N)cc1` (mixture of isomers) [(54), (2RS, 5RS, 6SR) 1-Aza-6-(DL-α-benzyloxycarbonyl-phenylacetamido)-3-methoxycarbonylbicyclo [3.2.0]-hept-3-en-7-one-2-carboxylic acid, p-toluidine salt], the “Minimum Inhibitory Concentration” value is > 100 µg/mL in the test on Staph. aureus Russell; > 100 µg/mL in the test on Proteus mirabilis; > 100 µg/mL in the test on Strep. faecalis; 25 µg/mL in the test with B. subtilis; 100 µg/mL in the test on Klebsiella aerogenes; > 100 µg/mL in the test with E. coli. In addition, the results for the “Minimum Inhibitory Concentration” value in the test with Staph. aureus Oxford, in the test with S. typhimurium and in the test on Strep. pneumoniae were > 100 µg/mL, 100 µg/mL and 10 µg/mL, respectively.

These data come from patent US4407815A, “β-Lactam antibacterial compounds, their preparation and pharmaceutical compositions containing them” (Beecham Group Limited, priority 1980, dated 1983).
